ChEMBL document CHEMBL3875190, “MARK inhibitors: Declaring a No-Go decision on a chemical series based on extensive DMPK experimentation” (Bioorg Med Chem Lett, 2017)
pIC50: −log10 of the molar value.

Assays:
[1] = Total plasma clearance in rat; format: ADME, cell-free
[2] = Partition coefficient, logD of compound at pH 7 by HPLC analysis; format: physicochemical; details: octanol/water
[3] = Volume of distribution in rat; format: ADME; details: in vivo
[4] = target: MAP/microtubule affinity-regulating kinase 3 (Homo sapiens, UniProt P27448); test: Inhibition of MARK3 (unknown origin)
[5] = Half life in rat liver microsomes; format: ADME
[6] = Half life in human liver microsomes; format: ADME
[7] = Drug metabolism in rat hepatocytes assessed as oxidation; format: ADME, cell-based, Hepatocyte
[8] = Drug metabolism in rat hepatocytes assessed as glucuronidation; format: ADME, cell-based, Hepatocyte
[9] = Drug excretion in bile duct-cannulated rat urine after 8 hrs by chromatographic analysis; format: ADME; details: read-out: Drug excretion
[10] = Drug excretion in bile duct-cannulated rat bile after 8 hrs by chromatographic analysis; format: ADME, tissue-based; details: read-out: Drug excretion
[11] = Drug recovery in bile duct-cannulated rat urine after 8 hrs by chromatographic analysis; format: ADME; details: read-out: Drug recovery
[12] = Drug recovery in bile duct-cannulated rat bile after 8 hrs by chromatographic analysis; format: ADME, tissue-based; details: read-out: Drug recovery
[13] = Stability in rat liver cytosol; format: ADME
[14] = Stability in human liver cytosol; format: ADME
[15] = Half life in dog liver microsomes; format: ADME, Canis lupus familiaris
[16] = Total plasma clearance in dog; format: ADME, cell-free, Canis lupus familiaris
[17] = Drug metabolism in rat liver microsomes assessed as oxidative metabolite formation; format: ADME
[18] = Drug metabolism in rat liver microsomes assessed as lactam hydrolysis; format: ADME
[19] = Drug metabolism in human liver microsomes assessed as oxidative metabolite formation; format: ADME
[20] = Drug metabolism in human liver microsomes assessed as lactam hydrolysis; format: ADME

Chain of MAP/microtubule affinity-regulating kinase 3 (P27448 whole entry): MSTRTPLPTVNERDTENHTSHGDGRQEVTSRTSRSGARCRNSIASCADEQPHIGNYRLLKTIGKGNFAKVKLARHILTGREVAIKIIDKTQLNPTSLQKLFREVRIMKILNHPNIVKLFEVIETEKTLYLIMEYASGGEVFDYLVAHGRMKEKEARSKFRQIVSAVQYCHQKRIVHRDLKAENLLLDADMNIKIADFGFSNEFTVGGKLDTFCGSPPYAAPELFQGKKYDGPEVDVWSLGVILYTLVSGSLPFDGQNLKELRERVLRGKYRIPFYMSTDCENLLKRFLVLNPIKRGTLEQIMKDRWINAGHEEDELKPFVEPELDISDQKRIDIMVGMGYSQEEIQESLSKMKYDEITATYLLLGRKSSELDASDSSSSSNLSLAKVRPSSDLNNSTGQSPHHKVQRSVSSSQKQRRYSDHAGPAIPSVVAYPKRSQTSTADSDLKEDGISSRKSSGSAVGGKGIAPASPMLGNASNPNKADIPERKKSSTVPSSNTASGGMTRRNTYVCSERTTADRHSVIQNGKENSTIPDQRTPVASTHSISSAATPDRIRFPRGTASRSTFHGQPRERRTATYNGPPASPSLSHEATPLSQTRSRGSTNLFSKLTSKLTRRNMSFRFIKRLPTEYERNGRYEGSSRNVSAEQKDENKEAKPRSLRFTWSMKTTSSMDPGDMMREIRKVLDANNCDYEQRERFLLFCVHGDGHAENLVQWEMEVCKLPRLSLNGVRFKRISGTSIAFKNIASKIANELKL

| Structure (SMILES) | clearance [1] [mL/min/kg] | logD [2] | Vd [3] [L/kg] | pIC50 [4] | half-life [5] [min] | further results |
| --- | --- | --- | --- | --- | --- | --- |
| CC1(C)C(=O)N(C2CCCCC2)c2nc(Nc3cccnc3)ncc21 | 47 | 2.82 | 2.8 | – | – | – |
| CC(=O)N1CCC(N2C(=O)C(C)(C)c3cnc(Nc4cccnc4)nc32)CC1 | 11 | 1.18 | 1.4 | 5.68 | > 60 | half-life [6]: > 60 min |
| CC1(C)C(=O)N([C@H]2CCc3c(O)cccc32)c2nc(Nc3ccccc3)ncc21 | – | – | – | – | – | Drug metabolism [7]: Metabolite_Detected; Drug metabolism [8]: Metabolite_Detected |
| [3H]c1nc(Nc2cccnc2)nc2c1C(C)(C)C(=O)N2[C@H](C)CC | – | – | – | – | – | dose excreted at 8 h [9]: > 95%; dose excreted at 8 h [10]: > 95%; dose excreted at 8 h [11]: 60 to 90%; dose excreted at 8 h [12]: 60 to 90%; Stability [13]: Stable; Stability [14]: Stable |
| CC[C@H](C)N1C(=O)C(C)(C)c2cnc(Nc3cccnc3)nc21 | – | 2.56 | 5.2 | – | – | – |
| CC[C@H](C)N1C(=O)C(C)(C)c2cnc(Nc3ccc(CNC4CCCOC4)cc3)nc21 (stereo partly specified) | 188 | 2.79 | 96 | – | – | – |
| CC[C@H](C)N1C(=O)C(C)(C)c2cnc(Nc3ccc(CN4CC(C)OC(C)C4)cc3)nc21 (stereo partly specified) | 269 | 3.98 | 14 | – | – | – |
| CC[C@H](C)N1C(=O)C(C)(C)c2cnc(Nc3ccc(CN4CCN(C)CC4)cc3)nc21 | 65 | 2.54 | 35 | – | – | – |
| CC[C@H](C)N1C(=O)C(C)(C)c2cnc(Nc3ccc(-c4nnc(C)[nH]4)cc3)nc21 | – | 2.21 | – | 7.10 | 50 | half-life [15]: 80 min; clearance [16]: 10 mL/min/kg |
| CC(=O)N1CCC(N2C(=O)C(C)(C)c3cnc(Nc4ccccc4)nc32)CC1 | 37 | 1.6 | 1.1 | – | 38 | half-life [6]: 30 min |
| CC(=O)N1CCC(N2C(=O)C(C)(C)c3cnc(Nc4ccc(F)cc4)nc32)CC1 | 37 | 2.5 | 1.6 | 5.55 | > 60 | half-life [6]: 51 min |
| CC[C@H](C)N1C(=O)C(C)(C)c2cnc(Nc3ccc(CN4CCC(=O)N(C)CC4)cc3)nc21 | 135 | 2.68 | 3 | – | – | – |
| CC[C@H](C)N1C(=O)C(C)(C)c2cnc(Nc3ccc(S(C)(=O)=O)cc3)nc21 | 84 | 3.09 | – | 6.92 | 26 | half-life [15]: 80 min; clearance [16]: 3 mL/min/kg |
| CC1(C)C(=O)N(C2CCCCC2)c2nc(Nc3cccc(CN4CCOCC4)c3)ncc21 | – | – | – | – | – | Drug metabolism [17]: Metabolite_Detected; Drug metabolism [18]: Metabolite_Detected; Drug metabolism [19]: Metabolite_Detected; Drug metabolism [20]: Metabolite_Detected |
| CC[C@H](C)N1C(=O)C2(CC2)c2cnc(Nc3cccnc3)nc21 | 81 | 2.3 | 2.9 | 7.22 | 25 | Drug metabolism [7]: Metabolite_Detected |
| C[C@@H](c1ccc(F)cc1)N1C(=O)C(C)(C)c2cnc(Nc3cccnc3)nc21 | 154 | 2.81 | 6.8 | – | – | – |
